Here are results for five compounds from patent US20240041042A1, “1-(PYRIDYL)-5-AZINYLPYRAZOLE DERIVATIVES, AND THEIR USE FOR CONTROL OF UNDESIRED PLANT GROWTH” (Bayer Aktiengesellschaft, priority 2020, published 2024).

Common to all, as to format: in vivo
Assay [1] deals with Alopecurus myosuroides (ALOMY). Put plainly: Pre-emergence herbicidal action against ALOMY. The note with it: scored visually after about 3 weeks, 100% = plants have died. Put shortly: (§1)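 Application rates ran to 320 g/ha or lower, with several dosages tested on the same weeds. The compound, as wettable powder or emulsion concentrate, is sprayed pre-emergence onto soil over sown seeds; greenhouse growth follows, and effect is rated visually after roughly 3 weeks.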

Assay [2] has as its system Amaranthus retroflexus (AMARE). The assay can be described thus: Pre-emergence herbicidal action against AMARE. The note with it: visual scoring after about 3 weeks vs untreated controls. Put shortly: as §1
The test system of assay [3] is Echinochloa crus-galli (ECHCG). The assay can be described thus: Pre-emergence herbicidal action against ECHCG. The method, boiled down: as §1
Assay [4] relates to Matricaria inodora (MATIN). The assay can be described thus: Pre-emergence herbicidal action against MATIN. The method, boiled down:
as §1

For assay [5], the system named is Polygonum convolvulus (POLCO). Put plainly: Pre-emergence herbicidal action against POLCO. Put shortly:
as §1

The subject of assay [6] is Alopecurus myosuroides (ALOMY). The assay can be described thus: Post-emergence herbicidal action against ALOMY. The note with it: visual rating about 3 weeks after treatment vs untreated controls (100% = plants have died, 0% = like control plants). Put shortly: (§2)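 Doses of 320 g/ha or lower, suffixes a, b and c marking different dosages, were applied post-emergence at the one-leaf stage in 600 l/ha water with 0.5% additive. Damage was assessed visually after about 3 weeks in the greenhouse.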

The subject of assay [7] is Echinochloa crus-galli (ECHCG). Put plainly: Post-emergence herbicidal action against ECHCG. The method, boiled down:
as §2

For another assay, the system named is Lolium rigidum (LOLRI). Put plainly: Post-emergence herbicidal action against LOLRI. The method, boiled down:
as §2

The structures appear in SMILES notation.

For `O=C(O)COc1nn(-c2ncccc2F)c(-c2ccc(F)nc2)c1Br` [Example I-17], the “Pre-emergence action against ALOMY” value in assay [1] (80 g/ha) and in assay [1] (320 g/ha) was 100% each time. Moreover, the “Pre-emergence action against AMARE in %” value in assay [2] (80 g/ha) and in assay [2] (320 g/ha) was 100% in each case. Moreover, the “Pre-emergence action against ECHCG in %” value in assay [3] (dosage 80 g/ha) and in assay [3] (dosage 320 g/ha) was 90% throughout. Also, the entries for the “Pre-emergence action against MATIN in %” value in assay [4] (dosage 80 g/ha) and in assay [4] (dosage 320 g/ha) were 90% and 100%, respectively. The “Pre-emergence action against POLCO in %” value in assay [5] (dosage 80 g/ha) is 90%; in assay [5] (dosage 320 g/ha), 100%. The “Post-emergence action against ALOMY in %” value in assay [6] (80 g/ha) and in assay [6] (320 g/ha) was 90% throughout. Further, the “Post-emergence action against ECHCG in %” value in assay [7] (dosage 80 g/ha) and in assay [7] (dosage 320 g/ha) was 80% each time. Also, the “Post-emergence action against LOLRI in %” value in the assay with Lolium rigidum (LOLRI) (dosage 320 g/ha) is reported as 80%.

On to `COC(=O)[C@@H](C)Oc1nn(-c2ccccn2)c(-c2cncc(F)c2)c1Cl` [Example I-189], for which the “Pre-emergence action against ALOMY” value was 80% in assay [1] (80 g/ha) and 90% in assay [1] (320 g/ha). Moreover, the “Pre-emergence action against AMARE in %” value in assay [2] (80 g/ha) and in assay [2] (320 g/ha) was 100% throughout. Moreover, the figures for the “Pre-emergence action against ECHCG in %” value in assay [3] (dosage 80 g/ha) and in assay [3] (dosage 320 g/ha) were 90% and 100%, respectively. Moreover, the “Pre-emergence action against MATIN in %” value stood at 90% in assay [4] (dosage 80 g/ha) and 100% in assay [4] (dosage 320 g/ha). The “Pre-emergence action against POLCO in %” value in assay [5] (dosage 80 g/ha) and in assay [5] (dosage 320 g/ha) was 100% in each case. Also, the “Post-emergence action against ALOMY in %” value is 80% in assay [6] (80 g/ha) and 90% in assay [6] (320 g/ha). Moreover, the “Post-emergence action against ECHCG in %” value in assay [7] (dosage 80 g/ha) and in assay [7] (dosage 320 g/ha) was 90% in each case. For the same compound, the “Post-emergence action against LOLRI in %” value in the assay with Lolium rigidum (LOLRI) (dosage 80 g/ha) and in the assay on Lolium rigidum (LOLRI) (dosage 320 g/ha) was 100% each time.

On to `O=C(O)COc1nn(-c2nc(F)ccc2F)c(-c2cncc(F)c2)c1C1CC1` [Example I-148], for which the “Pre-emergence action against ALOMY” value in assay [1] (80 g/ha) and in assay [1] (320 g/ha) was 100% throughout. In addition, the “Pre-emergence action against AMARE in %” value in assay [2] (80 g/ha) and in assay [2] (320 g/ha) was 100% throughout. For the same compound, the “Pre-emergence action against ECHCG in %” value is given as 90% in assay [3] (dosage 80 g/ha) and 100% in assay [3] (dosage 320 g/ha). Also, the “Pre-emergence action against MATIN in %” value in assay [4] (dosage 80 g/ha) and in assay [4] (dosage 320 g/ha) was 90% each time. Also, the entries for the “Pre-emergence action against POLCO in %” value in assay [5] (dosage 80 g/ha) and in assay [5] (dosage 320 g/ha) were 80% and 90%, respectively. Further, the “Post-emergence action against ALOMY in %” value in assay [6] (80 g/ha) is recorded as 80%; in assay [6] (320 g/ha), 90%. Further, the “Post-emergence action against ECHCG in %” value in assay [7] (dosage 80 g/ha) and in assay [7] (dosage 320 g/ha) was 80% each time. Also, the “Post-emergence action against LOLRI in %” value with Lolium rigidum (LOLRI) (dosage 80 g/ha) and with Lolium rigidum (LOLRI) (dosage 320 g/ha) was 80% throughout.

For `COC(=O)COc1nn(-c2nc(F)ccc2F)c(-c2cncc(F)c2)c1C1CC1` [Example I-164], the “Pre-emergence action against ALOMY” value in assay [1] (80 g/ha) and in assay [1] (320 g/ha) was 100% in each case. Further, the “Pre-emergence action against AMARE in %” value in assay [2] (80 g/ha) and in assay [2] (320 g/ha) was 100% each time. In addition, the results for the “Pre-emergence action against ECHCG in %” value in assay [3] (dosage 80 g/ha) and in assay [3] (dosage 320 g/ha) were 90% and 100%, respectively. The results for the “Pre-emergence action against MATIN in %” value in assay [4] (dosage 80 g/ha) and in assay [4] (dosage 320 g/ha) were 90% and 100%, respectively. In assay [5] (dosage 320 g/ha), the “Pre-emergence action against POLCO in %” value came to 100%. Further, the “Post-emergence action against ALOMY in %” value in assay [6] (80 g/ha) and in assay [6] (320 g/ha) was 100% in each case. The “Post-emergence action against ECHCG in %” value in assay [7] (dosage 80 g/ha) and in assay [7] (dosage 320 g/ha) was 80% throughout. The “Post-emergence action against LOLRI in %” value is listed as 80% in the assay with Lolium rigidum (LOLRI) (dosage 80 g/ha) and 90% in the assay with Lolium rigidum (LOLRI) (dosage 320 g/ha).

Take `COC(=O)COc1nn(-c2ncccc2F)c(-c2cncc(F)c2)c1Br` [Example I-16]: the “Pre-emergence action against ALOMY” value in assay [1] (80 g/ha) and in assay [1] (320 g/ha) was 100% in each case. Moreover, the “Pre-emergence action against AMARE in %” value in assay [2] (80 g/ha) and in assay [2] (320 g/ha) was 100% throughout. For the same compound, the “Pre-emergence action against ECHCG in %” value in assay [3] (dosage 80 g/ha) and in assay [3] (dosage 320 g/ha) was 90% throughout. For the same compound, the “Pre-emergence action against MATIN in %” value in assay [4] (dosage 80 g/ha) and in assay [4] (dosage 320 g/ha) was 100% throughout. Besides, the “Pre-emergence action against POLCO in %” value in assay [5] (dosage 80 g/ha) and in assay [5] (dosage 320 g/ha) was 90% in each case. The “Post-emergence action against ALOMY in %” value in assay [6] (80 g/ha) and in assay [6] (320 g/ha) was 90% each time. Further, the “Post-emergence action against ECHCG in %” value in assay [7] (dosage 80 g/ha) and in assay [7] (dosage 320 g/ha) was 80% throughout.
